Among the data in publication PMC9025901, “New Genetic Bomb Trigger: Design, Synthesis, Molecular Dynamics Simulation, and Biological Evaluation of Novel BIBR1532-Related Analogs Targeting Telomerase against Non-Small Cell Lung Cancer” (Pharmaceuticals, 2022) are IC50, IC90 and melting point values, retold here.

Data set [1] concerns the target T1, telomerase (Homo sapiens, UniProt O14746).
T1 construct: A549 cells (human epithelial cell lung carcinoma, ATCC, Manassas, VA) were lysed in; host or cells: A549 cell lysate (CHAPS extract, 5 µg total protein)
In words: TRAP / RTQ-TRAP telomerase activity assay in A549 cell-free lysates.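 Note: telomerase activity measured in cell-free extracts of human A549 epithelial lung carcinoma cells, tested across a range of inhibitor concentrations.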 Conditions: telomerase inhibition, mean ± SEM. In kind it is biochemical.
Protocol: In cell-free investigations, human A549 (epithelial cell lung carcinoma) lysates were utilized to evaluate telomerase with various inhibitor concentrations. […] The Telomeric Repeat Amplification Protocol (TRAP) [61] was used to evaluate the activity of telomerase, with some changes that we have previously described [62, 63]. A549 cells (human epithelial cell lung carcinoma, ATCC, Manassas, VA) were lysed in (10 mM) Tris-HCl, pH 7.5, (1 mM) EGTA, (1 mM) MgCl2, (5 mM) 2-mercaptoethanol, (0.1 mM) PMSF, (0.5%) CHAPS, and (10%) glycerol (Sigma-Aldrich, St. Louis, MO, USA) and centrifugation. The supernatants were kept at -80 °C. The BCA-1 Protein Assay Kit was used to assess the protein concentration in cell extracts (Sigma-Aldrich, St. Louis, MO, USA). […] To inactivate telomerase, the cells were elongated for 30 min at 37 °C and 10 min at 96 °C. Copy CX-primer was added to the elongation mixture along with 0.1 μL ([NT]) and 2.5 units Taq-polymerase, followed by the following PCR: 94 °C for 5 min; 30 cycles of 94 °C for 30 s, 50 °C for 30 s, and 72 °C for 40 s, and 72 °C for 5 min. […] The gels were stained with the SYBR Green I (Invitrogen, Grand Island, NY, USA), then photographed under the UV light in ChemiDocTM XRS imaging system and analyzed with GelAnalyzer 2010. Analysis was carried out using SPSS 25 software, a 2-way ANOVA, and a student's t-test (IBM SPSS Statistics, Armonk, NY, USA). The mean ± SEM is used to express the findings. The significance level was set at p ≤ 0.05. […] According to Sebaugh J.L., et al.'s guidelines, the values were assessed using the Prism 6 software (GraphPad, San Diego, CA, USA) [65].

T1 sequence (O14746 whole entry): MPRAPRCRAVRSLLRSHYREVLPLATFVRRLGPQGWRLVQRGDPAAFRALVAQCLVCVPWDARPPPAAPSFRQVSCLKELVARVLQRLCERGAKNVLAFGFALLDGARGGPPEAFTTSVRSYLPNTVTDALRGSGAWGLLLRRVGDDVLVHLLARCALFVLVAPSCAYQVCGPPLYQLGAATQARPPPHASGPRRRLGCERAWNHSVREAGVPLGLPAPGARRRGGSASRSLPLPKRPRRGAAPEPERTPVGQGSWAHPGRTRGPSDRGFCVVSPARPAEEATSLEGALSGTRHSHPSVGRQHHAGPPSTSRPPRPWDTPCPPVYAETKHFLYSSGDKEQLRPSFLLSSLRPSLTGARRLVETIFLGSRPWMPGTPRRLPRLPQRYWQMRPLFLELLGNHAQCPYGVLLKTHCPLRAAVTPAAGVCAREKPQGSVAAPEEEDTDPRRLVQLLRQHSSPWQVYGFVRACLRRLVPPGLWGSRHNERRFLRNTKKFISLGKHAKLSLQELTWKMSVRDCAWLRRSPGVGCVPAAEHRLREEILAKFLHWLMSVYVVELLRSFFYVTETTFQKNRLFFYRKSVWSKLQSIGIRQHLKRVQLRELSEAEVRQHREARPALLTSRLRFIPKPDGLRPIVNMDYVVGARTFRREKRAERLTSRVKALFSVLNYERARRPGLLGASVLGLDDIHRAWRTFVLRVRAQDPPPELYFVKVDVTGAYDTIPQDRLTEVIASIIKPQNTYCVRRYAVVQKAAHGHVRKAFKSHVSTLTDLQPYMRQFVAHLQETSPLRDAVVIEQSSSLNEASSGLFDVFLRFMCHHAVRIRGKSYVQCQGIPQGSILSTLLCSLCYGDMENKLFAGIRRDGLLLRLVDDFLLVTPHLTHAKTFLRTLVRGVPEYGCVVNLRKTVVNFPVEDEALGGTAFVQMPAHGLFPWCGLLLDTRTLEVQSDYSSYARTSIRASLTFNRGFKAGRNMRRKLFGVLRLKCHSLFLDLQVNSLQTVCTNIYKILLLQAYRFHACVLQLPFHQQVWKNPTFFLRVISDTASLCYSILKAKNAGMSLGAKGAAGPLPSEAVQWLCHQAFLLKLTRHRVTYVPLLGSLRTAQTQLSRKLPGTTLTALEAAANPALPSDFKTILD
T1 sequence (O60832 whole entry partner): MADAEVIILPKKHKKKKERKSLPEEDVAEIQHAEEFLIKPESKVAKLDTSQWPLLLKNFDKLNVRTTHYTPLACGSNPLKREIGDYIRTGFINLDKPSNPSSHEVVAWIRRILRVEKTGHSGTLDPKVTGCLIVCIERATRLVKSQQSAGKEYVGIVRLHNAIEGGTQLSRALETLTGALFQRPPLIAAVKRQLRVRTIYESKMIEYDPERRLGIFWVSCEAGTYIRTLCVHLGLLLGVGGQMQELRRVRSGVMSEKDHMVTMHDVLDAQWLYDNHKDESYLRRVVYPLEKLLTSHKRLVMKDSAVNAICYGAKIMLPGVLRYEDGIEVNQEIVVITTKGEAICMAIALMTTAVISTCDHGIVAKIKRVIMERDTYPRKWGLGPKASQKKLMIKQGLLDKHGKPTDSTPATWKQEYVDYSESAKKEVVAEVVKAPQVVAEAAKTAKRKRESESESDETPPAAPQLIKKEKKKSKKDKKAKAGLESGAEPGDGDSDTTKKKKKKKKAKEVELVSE
T1 sequence (Q9NX24 whole entry partner): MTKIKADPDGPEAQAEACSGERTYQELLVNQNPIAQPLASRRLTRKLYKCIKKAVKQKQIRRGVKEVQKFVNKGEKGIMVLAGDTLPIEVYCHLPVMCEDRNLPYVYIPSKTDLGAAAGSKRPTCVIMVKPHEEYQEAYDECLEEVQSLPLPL
T1 sequence (Q9NPE3 whole entry partner): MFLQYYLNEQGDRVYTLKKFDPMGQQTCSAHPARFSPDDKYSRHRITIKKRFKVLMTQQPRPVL
T1 sequence (Q9NY12 whole entry partner): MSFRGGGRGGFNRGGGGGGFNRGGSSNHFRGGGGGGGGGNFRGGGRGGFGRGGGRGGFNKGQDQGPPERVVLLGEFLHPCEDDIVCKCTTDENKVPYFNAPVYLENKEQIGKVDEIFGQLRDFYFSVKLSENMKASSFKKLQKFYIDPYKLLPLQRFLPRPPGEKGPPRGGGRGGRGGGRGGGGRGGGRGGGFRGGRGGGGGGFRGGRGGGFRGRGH
T1 sequence (Q9BUR4 whole entry partner): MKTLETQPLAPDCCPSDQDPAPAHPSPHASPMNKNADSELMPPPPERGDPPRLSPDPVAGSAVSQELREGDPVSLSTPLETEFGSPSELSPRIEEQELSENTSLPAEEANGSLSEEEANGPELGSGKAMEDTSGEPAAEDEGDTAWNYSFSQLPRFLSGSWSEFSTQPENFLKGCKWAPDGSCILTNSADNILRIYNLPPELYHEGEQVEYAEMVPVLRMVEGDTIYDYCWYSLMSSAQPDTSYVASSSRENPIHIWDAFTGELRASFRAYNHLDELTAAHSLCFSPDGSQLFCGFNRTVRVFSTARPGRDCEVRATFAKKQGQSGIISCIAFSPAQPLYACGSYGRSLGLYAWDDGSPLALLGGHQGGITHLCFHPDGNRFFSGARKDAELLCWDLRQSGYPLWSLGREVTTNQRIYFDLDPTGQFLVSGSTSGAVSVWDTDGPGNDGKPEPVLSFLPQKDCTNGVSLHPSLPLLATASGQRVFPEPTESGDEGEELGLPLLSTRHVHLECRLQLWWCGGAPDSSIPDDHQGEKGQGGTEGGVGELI

A word on the IC50: it is the concentration that gives 50% inhibition. Read a low IC50 as greater potency in that assay. The term IC90 denotes the concentration at which the effect reaches the 90% level. High values mean weaker potency, low ones greater potency. Usually melting point stands for the temperature of the solid-liquid transition. As to `N#C/C(=C\c1cccc2c1OCO2)C(=O)Nc1sc2c(c1C#N)CCC2` [Compound 37a, (2E)-3-(2H-1,3-Benzodioxol-4-yl)-2-cyano-N-{3-cyano-4H,5H,6H-cyclopenta[b]thiophen-2-yl}prop-2-enamide], the melting point fell in the range of 286 to 288 °C. In data set [1], this compound gave an IC50 of 23.5 ± 0.9 µM and an IC90 of 137 ± 2.6 µM.
The like results for `N#C/C(=C\c1ccc(Cl)c(Cl)c1)C(=O)Nc1sc2c(c1C#N)CCCC2` [Compound 27b, (2E/2Z)-2-Cyano-N-(3-cyano-4,5,6,7-tetrahydro-1-benzothiophen-2-yl)-3-(3,4-dichlorophenyl)prop-2-enamide] were, in that order, 376 to 378 °C, 12.5 ± 0.6 µM and 138 µM.
Consider `N#C/C(=C\c1ccc(N2CCOCC2)cc1)C(=O)Nc1sc2c(c1C#N)CCC2` [Compound 30a, (2E)-2-Cyano-N-{3-cyano-4H,5H,6H-cyclopenta[b]thiophen-2-yl}-3-[4-(morpholin-4-yl)phenyl]prop-2-enamide], for which, in data set [1], the IC50 turned out to be 5.2 ± 0.2 µM and the IC90 came out at 112 ± 3.6 µM.
As to `CN1CCN(c2ccc(/C=C(\C#N)C(=O)Nc3sc4c(c3C#N)CCCC4)cc2)CC1` [Compound 31b, (2E)-2-Cyano-N-(3-cyano-4,5,6,7-tetrahydro-1-benzothiophen-2-yl)-3-[4-(4-methylpiperazin-1-yl)phenyl]prop-2-enamide], the melting point lay in the range of 257 to 259 °C. In data set [1], this compound returned an IC50 of 89.9 ± 3.6 µM and an IC90 of 165 µM.
In data set [1], `N#C/C(=C\c1cccc2ccccc12)C(=O)Nc1sc2c(c1C#N)CCC2` [Compound 35a, (2E)-2-Cyano-N-{3-cyano-4H,5H,6H-cyclopenta[b]thiophen-2-yl}-3-(naphthalen-1-yl)prop-2-enamide] showed an IC50 of 5.1 ± 0.2 µM and an IC90 of 31.1 ± 1.1 µM.
`N#C/C(=C\c1ccc(N2CCOCC2)cc1)C(=O)Nc1sc2c(c1C#N)CCCC2` [Compound 30b, (2E)-2-Cyano-N-(3-cyano-4,5,6,7-tetrahydro-1-benzothiophen-2-yl)-3-[4-(morpholin-4-yl)phenyl]prop-2-enamide] registered a melting point of 246 to 248 °C. In data set [1], this compound yielded an IC50 of 5.9 ± 0.2 µM and a concentration for an effect of 90% (IC90) of 119 ± 4.6 µM.
In the case of `N#C/C(=C\c1cccc(Cl)c1Cl)C(=O)Nc1sc2c(c1C#N)CCC2` [Compound 28a, (2E/2Z)-2-Cyano-N-{3-cyano-4H,5H,6H-cyclopenta[b]thiophen-2-yl}-3-(2,3-dichlorophenyl)prop-2-enamide], the melting point fell in the range of 302 to 304 °C. For the same compound, in data set [1], half-maximal inhibition (IC50) required 6.7 ± 0.1 µM and the concentration for an effect of 90% (IC90) stood at 67.8 µM.
In data set [1], `COc1ccc(/C=C(\C#N)C(=O)Nc2sc3c(c2C#N)CCCC3)cc1OC` [Compound 26b, (2E)-2-Cyano-N-(3-cyano-4,5,6,7-tetrahydro-1-benzothiophen-2-yl)-3-(3,4-dimethoxyphenyl)prop-2-enamide] registered an IC50 of 53.6 ± 1.8 µM and an IC90 of 751 µM.
The compound `N#C/C(=C\c1c[nH]c2ccccc12)C(=O)Nc1sc2c(c1C#N)CCC2` [Compound 39a, (2E)-2-Cyano-N-{3-cyano-4H,5H,6H-cyclopenta[b]thiophen-2-yl}-3-(1H-indol-3-yl)prop-2-enamide] gave a melting point of 284 to 286 °C. In addition, in data set [1], half-maximal inhibition (IC50) required 2.5 ± 0.1 µM and it took 9.5 ± 0.3 µM to reach the 90% level (IC90).
The matching figures for `Cc1nn(-c2ccccc2)cc1/C=C(\C#N)C(=O)Nc1sc2c(c1C#N)CCCC2` [Compound 33b, (2E)-2-Cyano-N-(3-cyano-4,5,6,7-tetrahydro-1-benzothiophen-2-yl)-3-(3-methyl-1-phenyl-1H-pyrazol-4-yl)prop-2-enamide]: 256 to 258 °C, 178 ± 3.3 µM and 574 µM.
In the case of `N#C/C(=C\c1ccc(C(F)(F)F)cc1)C(=O)Nc1sc2c(c1C#N)CCC2` [Compound 25a, (2E/2Z)-2-Cyano-N-{3-cyano-4H,5H,6H-cyclopenta[b]thiophen-2-yl}-3-[4-(trifluoromethyl)phenyl]prop-2-enamide], the melting point lay in the range of 354 to 356 °C. In data set [1], this compound registered an IC50 of 20.9 ± 0.7 µM and an IC90 of 109 ± 3.2 µM.
In data set [1], `COc1ccc(/C=C(\C#N)C(=O)Nc2sc3c(c2C#N)CCC3)cc1OC` [Compound 26a, (2E)-2-Cyano-N-{3-cyano-4H,5H,6H-cyclopenta[b]thiophen-2-yl}-3-(3,4-dimethoxyphenyl)prop-2-enamide] returned an IC50 of 13.5 ± 0.6 µM and an IC90 of 154 µM.
Turning to `N#C/C(=C\c1c[nH]nc1-c1ccccc1)C(=O)Nc1sc2c(c1C#N)CCC2` [Compound 34a, (2E)-2-Cyano-N-{3-cyano-4H,5H,6H-cyclopenta[b]thiophen-2-yl}-3-(3-phenyl-1H-pyrazol-4-yl)prop-2-enamide], the melting point is 226 to 228 °C. In data set [1], this compound came in with an IC50 of 189 ± 6.4 µM and an IC90 of 1080 µM.
The matching figures for `N#C/C(=C\c1ccc2c(c1)OCO2)C(=O)Nc1sc2c(c1C#N)CCC2` [Compound 38a, (2E)-3-(2H-1,3-Benzodioxol-5-yl)-2-cyano-N-{3-cyano-4H,5H,6H-cyclopenta[b]thiophen-2-yl}prop-2-enamide]: 219 to 221 °C, 25.4 ± 1 µM and 282 µM.
The like results for `COc1cc(/C=C(\C#N)C(=O)Nc2sc3c(c2C#N)CCCC3)ccc1OCc1ccccc1` [Compound 32b, (2E)-3-[4-(Benzyloxy)-3-methoxyphenyl]-2-cyano-N-(3-cyano-4,5,6,7-tetrahydro-1-benzothiophen-2-yl)prop-2-enamide] were, in that order, 220 to 222 °C, 110 ± 3.7 µM and 181 µM.
The matching figures for `N#C/C(=C\c1cccc2c1OCO2)C(=O)Nc1sc2c(c1C#N)CCCC2` [Compound 37b, (2E)-3-(2H-1,3-Benzodioxol-4-yl)-2-cyano-N-(3-cyano-4,5,6,7-tetrahydro-1-benzothiophen-2-yl)prop-2-enamide]: 226 to 228 °C, 97.8 ± 2.6 µM and 174 µM.
In the case of `N#C/C(=C\c1cccc(Cl)c1Cl)C(=O)Nc1sc2c(c1C#N)CCCC2` [Compound 28b, (2E)-2-Cyano-N-(3-cyano-4,5,6,7-tetrahydro-1-benzothiophen-2-yl)-3-(2,3-dichlorophenyl)prop-2-enamide], the melting point was 232 to 234 °C. In data set [1], this compound displayed an IC50 of 8.3 ± 0.3 µM and an IC90 of 57.4 µM.
The like results for `N#C/C(=C\c1ccc(C(F)(F)F)cc1)C(=O)Nc1sc2c(c1C#N)CCCC2` [Compound 25b, (2E)-2-Cyano-N-(3-cyano-4,5,6,7-tetrahydro-1-benzothiophen-2-yl)-3-[4-(trifluoromethyl)phenyl]prop-2-enamide] were, in that order, 225 to 227 °C, 25.8 ± 1 µM and 140 ± 4.7 µM.
The matching figures for `N#C/C(=C\c1c[nH]nc1-c1ccccc1)C(=O)Nc1sc2c(c1C#N)CCCC2` [Compound 34b, (2E)-2-Cyano-N-(3-cyano-4,5,6,7-tetrahydro-1-benzothiophen-2-yl)-3-(3-phenyl-1H-pyrazol-4-yl)prop-2-enamide]: 263 to 265 °C, 38.8 ± 1 µM and 284 ± 6.6 µM.
The like results for `N#C/C(=C\c1ccc(Cl)c(Cl)c1)C(=O)Nc1sc2c(c1C#N)CCC2` [Compound 27a, (2E/2Z)-2-Cyano-N-{3-cyano-4H,5H,6H-cyclopenta[b]thiophen-2-yl}-3-(3,4-dichlorophenyl)prop-2-enamide] were, in that order, 329 to 331 °C, 6.5 ± 0.3 µM and 164 µM.
`N#C/C(=C\c1ccc(N2CCCCC2)cc1)C(=O)Nc1sc2c(c1C#N)CCCC2` [Compound 29b, (2E)-2-Cyano-N-(3-cyano-4,5,6,7-tetrahydro-1-benzothiophen-2-yl)-3-[4-(piperidin-1-yl)phenyl]prop-2-enamide]: the melting point lay within 262 to 264 °C. In addition, in data set [1], 4.8 ± 0.2 µM corresponded to half-maximal inhibition (IC50) and it took 32.8 ± 1.5 µM to reach the 90% level (IC90).
`N#C/C(=C\c1ccc2c(c1)OCO2)C(=O)Nc1sc2c(c1C#N)CCCC2` [Compound 38b, (2E)-3-(2H-1,3-Benzodioxol-5-yl)-2-cyano-N-(3-cyano-4,5,6,7-tetrahydro-1-benzothiophen-2-yl)prop-2-enamide] gave a melting point of 204 to 206 °C. In data set [1], this compound gave an IC50 of 40.3 ± 1.7 µM and an IC90 of 339 µM.
In data set [1], `N#C/C(=C\c1ccc2ccccc2c1)C(=O)Nc1sc2c(c1C#N)CCC2` [Compound 36a, (2E)-2-Cyano-N-{3-cyano-4H,5H,6H-cyclopenta[b]thiophen-2-yl}-3-(naphthalen-2-yl)prop-2-enamide] had an IC50 of 5.2 ± 0.2 µM and an IC90 of 34.9 ± 1.6 µM.
Turning to `COc1cc(/C=C(\C#N)C(=O)Nc2sc3c(c2C#N)CCC3)ccc1OCc1ccccc1` [Compound 32a, (2E)-3-[4-(Benzyloxy)-3-methoxyphenyl]-2-cyano-N-{3-cyano-4H,5H,6H-cyclopenta[b]thiophen-2-yl}prop-2-enamide], the melting point lay within 233 to 235 °C. In data set [1], this compound displayed an IC50 of 6.4 ± 0.2 µM and an IC90 of 177 µM.
For the compound `CN1CCN(c2ccc(/C=C(\C#N)C(=O)Nc3sc4c(c3C#N)CCC4)cc2)CC1` [Compound 31a, (2E)-2-Cyano-N-{3-cyano-4H,5H,6H-cyclopenta[b]thiophen-2-yl}-3-[4-(4-methylpiperazin-1-yl)phenyl]prop-2-enamide], in data set [1], the IC50 turned out to be 98.5 ± 3.8 µM and the IC90 was 200 µM.
The matching figures for `Cc1nn(-c2ccccc2)cc1/C=C(\C#N)C(=O)Nc1sc2c(c1C#N)CCC2` [Compound 33a, (2E)-2-Cyano-N-{3-cyano-4H,5H,6H-cyclopenta[b]thiophen-2-yl}-3-(3-methyl-1-phenyl-1H-pyrazol-4-yl)prop-2-enamide]: 205 ± 4 µM and 643 µM.
In data set [1], `N#C/C(=C\c1cccc2ccccc12)C(=O)Nc1sc2c(c1C#N)CCCC2` [Compound 35b, (2E)-2-Cyano-N-(3-cyano-4,5,6,7-tetrahydro-1-benzothiophen-2-yl)-3-(naphthalen-1-yl)prop-2-enamide] yielded an IC50 of 5.3 ± 0.2 µM and an IC90 of 18.6 ± 0.9 µM.
